Entries after “also recorded” stand apart in the source; their conditions may differ.
Experiments:
DU145 cells = experiment: DU145 cell growth, MTT; type: cell-based, human
Description: (§1) For cell proliferation assays, cells were grown in 10% FCS culture medium containing various amounts of IFNs and/or sodium stibogluconate in 96 well plates and cultured at 37° C. for 3 or 6 days as indicated. The numbers of viable cells in proliferation assays were determined by MTT assays as described in Phatak et al., J. Immunol. 167, 3391 (2001).
(§2) NIH3T3 (Yi, et al., Blood 85, 87 (1995)), WM9 (Forsberg, et al., Proc. Nat. Acad Sci. USA 90, 393 (1993)), DU145 (Mickey, et al., Cancer Res. 37, 4049 (1977)), LoVo (Drewinko, et al., Cancer Res. 36, 467 (1976)), HEY (Buick, et al., Cancer Res. 45, 3668 (1985)), U251 (Yoshida, et al., Cancer 50, 410 (1982)), A549 (Giard, et al., J. Natl. Cancer Inst. 51, 1417 (1973)) and SK-N-SH (Helson, et al., Cancer Res. 35, 2594 (1975)) cell lines have been described and were cultured in RPMI 1640 supplemented with 10% fetal calf serum (FCS). For measurement of sodium stibogluconate effects on cell growth in vitro, cells were cultured in the absence (−) or presence (+) of various amounts of sodium stibogluconate for 6 days with viable cells quantified by MTT assays (Mosmann, J. Immunol. Methods 65, 55 (1983)). Percentages of growth inhibition by sodium stibogluconate were calculated (.+−.x%).

C42 = C42 cell growth, MTT; type: cell-based, human
Description: as §1

TF-1 cells = experiment: TF-1 cell proliferation assay; type: cell-based, human; details: 50 μg/ml
Description: The murine hematopoietic cell line Baf3 was maintained in RPMI 1640 medium supplemented with 10% fetal calf serum (FCS) and murine IL-3 (20 units/ml) as described previously in Damen et al., J. Biol. Chem. 270, 23402 (1995). Human myeloid cell line TF-1 was maintained in RPMI 1640 supplemented with 10% FCS and 40 ng/ml of recombinant human GM-CSF as described previously in Thomassen et al., Clin. Immunol. 95, 85 (2000). For cell proliferation assays, cells were washed in 10% FCS medium twice, resuspended in 10% FCS medium, incubated at 37° C. for 16 hours, and then cultured at 37° C. in 10% FCS medium containing various amounts of cytokines, sodium stibogluconate, or potassium antimonyl tartrate for 3-6 days as indicated. The cell numbers in proliferation assays were determined by an MTT assay or by microscopic cell counting as indicated.

toxicity in nude mice = type: in vivo
Description: Nude mice bearing WM9 or DU145 xenografts were treated with IFN-alpha (500,000 U, s.c., daily), sodium stibogluconate (12 mg Sb, s.c., daily) or both. […] The dosage of sodium stibogluconate corresponds to approximately 440 mg Sb/kg body weight (average mouse body weight 27 g), substantially higher than the standard therapeutic dose of 20 mg Sb/kg and the high dose (143 mg Sb/kg) that was clinically used by accident without serious toxicity. This dose of sodium stibogluconate was based on a previous observation in a pilot study that mice could tolerate daily dose of 20 mg Sb (approximately 700-800 mg Sb/kg). An observation that the effect of sodium stibogluconate in inhibiting the growth of the cancer cell lines in vitro was dose-dependent with complete or near complete killing of the cancer cells at 100 μg Sb/ml (or […]) was also considered. […]
As discussed above, the dosage of sodium stibogluconate used for the treatment of nude mice was 12 mg Sb/mouse, s.c., daily (or approximately 440 mg/kg body weight). […] As an initial step to assess the toxicity of such a high dosage of sodium stibogluconate in nude mice, the effect of sodium stibogluconate on the viability and body weights of WM9 xenografts nude mice during the 25 day period of the study was determined.

PTP1B = biological target: T1, PTP1B (Homo sapiens, UniProt P18031); experiment: in vitro PTPase assay, GST/PTP1B; type: biochemical
T1 construct: purchased Upstate Biotechnology Inc. (Lake Placid, N.Y.)
T1 sequence (P18031 whole entry, species assumed): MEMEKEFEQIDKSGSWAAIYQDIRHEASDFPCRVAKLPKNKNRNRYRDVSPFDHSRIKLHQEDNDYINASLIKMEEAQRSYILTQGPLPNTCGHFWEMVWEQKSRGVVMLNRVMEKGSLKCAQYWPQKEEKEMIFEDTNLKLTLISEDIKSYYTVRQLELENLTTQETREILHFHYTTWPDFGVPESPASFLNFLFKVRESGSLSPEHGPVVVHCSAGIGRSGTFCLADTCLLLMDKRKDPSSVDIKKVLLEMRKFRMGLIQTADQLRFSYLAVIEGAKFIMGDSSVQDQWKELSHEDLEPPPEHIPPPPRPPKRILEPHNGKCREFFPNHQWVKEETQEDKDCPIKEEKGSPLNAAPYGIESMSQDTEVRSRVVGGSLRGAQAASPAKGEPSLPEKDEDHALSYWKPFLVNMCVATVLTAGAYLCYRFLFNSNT
Description: In vitro PTPase activities were measured using the commercial protein tyrosine phosphatase assay kit (Upstate Biotechnology, Inc. (“UBI”)) following established procedure known to one of skill in the art. This assay measures the in vitro dephosphorylation of a synthetic phosphotyrosine peptide of the sequence Arg-Arg-Leu-Ile-Glu-Asp-Ala-Gle-T- -yr-Ala-Ala-Arg-Gly, wherein the tyrosine is phosphorylated (SEQ ID NO: 3). Briefly, 0.01 μg of GST/PTPase fusion proteins was incubated in 50 μl of Tris buffer (10 mM Tris, pH 7.4) containing different concentrations of inhibitors or chemicals (0-1,000 μg/ml) at 22° C. for 10 minutes, followed by addition of 0.2 mM of the phosphotyrosine peptide and incubation at 22° C. for 18 hours. 100 μl of Malachite Green solution was added and incubated for 5 minutes, and the absorbance at 660 nm was measured after 5 minutes.
In vitro PTPase assays were used to determine the effects of levamisole (Sigma), pentamidine (American Pharmaceutical Partners, Inc.), and ketoconazole (Sigma) on recombinant PTPases, following established procedures (Pathak et al., J. Immunol. 167, 3391 (2001); Pathak et al., Leukemia 16, 2285 (2002), Yi et al., J. Immunol. 169, 5978 (2002)) using a synthetic phosphotyrosine peptide or DiFMUP as the substrate as detailed above in section I.A.2.

[1] = test system: WM9 PRL-1R86 transfectant; experiment: growth of WM9 PRL-1R86 transfectant, MTT; type: cell-based, human; details: 50 or 100 μg/ml, 6 days
Description: as §2
The effects of sodium stibogluconate on intracellular PTPases were assessed using NIH3T3 or WM9 transfectants. NIH3T3 or WM9 cells were transfected with the pBabepuro vector (V) or pBabepuro expression constructs of Flag-tagged PRLs using Lipofectamine (BRL) following the manufacturer's procedures. […]

## O.O.O.O.O.O.O.O.O.O=C([O-])[C@@H]1[O][Sb]2([O-])([O][Sb]34([OH])[O][C@H]([C@H](O)CO)[C@H]([O]3)[C@H](C(=O)[O-])[O]4)[O][C@H]([C@H](O)CO)[C@@H]1[O]2.[Na+].[Na+].[Na+] [sodium stibogluconate]
DU145 cells; 50 μg/ml and 100 μg/ml, day 6 culture
  DU145 cells, single agent: killed all cells
DU145 cells; 100 μg/ml, day 6
  cell killing of DU145: near-complete cell killing
C42
  sensitivity of C42 cells: highly resistant
TF-1 cells; GM-CSF 5-40 ng/ml
  GM-CSF-induced proliferation of TF-1 cells: augmented
TF-1 cells; with GM-CSF and IFN-alpha
  growth inhibition activity of IFN-alpha on TF-1 cells in presence of drug: enhanced
Toxicity in nude mice; WM9 xenograft mice, 25 days, 12 mg Sb daily (440 mg Sb/kg), IFN-alpha 500,000 U
  viability and tolerance of treated mice: survived until the end of the study; also recorded: well tolerated with no serious side effects
Toxicity in nude mice; mice, approximately 700-800 mg Sb/kg
  tolerated daily dose, pilot study: 20 mg Sb
PTP1B
  inhibition of PTP1B compared with the three drugs: only modestly effective
[1]
  growth inhibition of R86 cells: only modest growth inhibition
